# Patent US20250344697A1, “ENANTIOMERICALLY ENRICHED […] THE CONTROL OF RESISTANT PHYTOPATHOGENIC FUNGI” (SYNGENTA CROP PROTECTION AG, priority 2022, published 2025)
# Columns and labels:
# Assay in all cases: in vitro antifungal test, Z. tritici spore suspension in PDB
# Assay type in all cases: cell-based
# [1] = system: K9023 Zymoseptoria tritici CYP51 L50S V136C S188N A379G I381V YG459 S524T; details: for M = (EC50 (enantiomer)/EC50 (racemate)) − 0.5: (−)-enantiomer vs racemate; for EC50 (ppm): growth at 3 days post exposure, average of two replicates
# Method: (§1) A panel of 16 Zymoseptoria tritici isolates was subjected to in vitro antifungal tests. Spore suspensions of Z. tritici isolates were prepared in potato dextrose broth (PDB) and exposed to defined concentration ranges of the inhibitors (20ppm starting concentration, dilution steps of 3). A sensitive wild-type isolate was used together with a panel of strains containing variants of the Z. tritici CYP51 gene conferring resistance to DMI fungicides. The DMI-resistant isolates were isolated from wheat in the UK, Ireland, Germany and Russia in 2020. Determination of CYP51 gene variants was achieved using targeted gene sequencing. The half maximal effective concentration (EC50) of the inhibitors were calculated based on growth responses of Z. tritici at 3 days post exposure to the different concentrations of the […] using a linear regression. The Tables A and B show an average of EC50 values in ppm from two replicates, as well as M=(EC50 (enantiomer)/EC50 (racemate))−0.5.
# [2] = system: K9026 Zymoseptoria tritici CYP51 L50S S188N A379G I381V YG459 N513K; details: for M = (EC50 (enantiomer)/EC50 (racemate)) − 0.5: (−)-enantiomer vs racemate; for EC50 (ppm): growth at 3 days post exposure, average of two replicates
# Method: as §1
# [3] = system: K5544 Zymoseptoria tritici (WT); details: isolate K5544 (WT)
# Method: as §1
# [4] = system: K9029 Zymoseptoria tritici CYP51 L50S I381V YG459 N513K; details: for M = (EC50 (enantiomer)/EC50 (racemate)) − 0.5: (−)-enantiomer vs racemate; for EC50 (ppm): growth at 3 days post exposure, average of two replicates
# Method: as §1
# [5] = system: K9032 Zymoseptoria tritici CYP51 L50S D134G V136A I381V Y461H S524T; details: for M = (EC50 (enantiomer)/EC50 (racemate)) − 0.5: (−)-enantiomer vs racemate; for EC50 (ppm): growth at 3 days post exposure, average of two replicates
# Method: as §1
# [6] = system: K9022 Zymoseptoria tritici CYP51 L50S V136A I381V Y461S S524T; details: isolate K9022
# Method: as §1
# [7] = system: K9020 Zymoseptoria tritici CYP51 L50S V136A I381V Y461S S524T; details: isolate K9020
# Method: as §1
# [8] = system: K9021 Zymoseptoria tritici CYP51 L50S V136A I381V Y461S S524T; details: isolate K9021
# Method: as §1
# [9] = (−)-enantiomer vs racemate, below 0 = enantiomer outperforms racemate
# [10] = growth at 3 days post exposure, average of two replicates
smiles,measurement,setting,value
"COC(=O)C(O)(Cn1cncn1)c1ccc(Oc2ccc(Cl)cc2)cc1C(F)(F)F (single isomer, unassigned; (-)) [(−)-enantiomer of Compound I-2, (−)-Methyl 2-[4-(4-chlorophenoxy)-2-(trifluoromethyl)phenyl]-2-hydroxy-3-(1,2,4-triazol-1-yl)propanoate]",M = (EC50 (enantiomer)/EC50 (racemate)) − 0.5,"[1]; isolate K9023, 2nd listed row",0.50
same,EC50 (ppm),"[1]; isolate K9023, 2nd listed row",0.1 ppm
same,M = (EC50 (enantiomer)/EC50 (racemate)) − 0.5,"[1]; isolate K9023, 3rd listed row",0.17
same,EC50 (ppm),"[1]; isolate K9023, 3rd listed row",0.2 ppm
same,M = (EC50 (enantiomer)/EC50 (racemate)) − 0.5,[1]; isolate K9023,0.50
same,EC50 (ppm),[1]; isolate K9023,0.3 ppm
same,M = (EC50 (enantiomer)/EC50 (racemate)) − 0.5,"[2]; isolate K9026, 1st listed row",0.00
same,EC50 (ppm),"[2]; isolate K9026, 1st listed row",3 ppm
same,M = (EC50 (enantiomer)/EC50 (racemate)) − 0.5,"[2]; isolate K9026, 2nd listed row",0.21
same,EC50 (ppm),"[2]; isolate K9026, 2nd listed row",0.05 ppm
same,M = (EC50 (enantiomer)/EC50 (racemate)) − 0.5,"[2]; isolate K9026, 3rd listed row",0.07
same,EC50 (ppm),"[2]; isolate K9026, 3rd listed row",0.04 ppm
same,M = (EC50 (enantiomer)/EC50 (racemate)) − 0.5,[3]; [9],0.50
same,EC50 (ppm),[3]; [10],0.03 ppm
same,M = (EC50 (enantiomer)/EC50 (racemate)) − 0.5,"[4]; isolate K9029, 1st listed row",0.13
same,EC50 (ppm),"[4]; isolate K9029, 1st listed row",0.5 ppm
same,M = (EC50 (enantiomer)/EC50 (racemate)) − 0.5,"[4]; isolate K9029, 2nd listed row",−0.17
same,EC50 (ppm),"[4]; isolate K9029, 2nd listed row",1 ppm
same,M = (EC50 (enantiomer)/EC50 (racemate)) − 0.5,"[4]; isolate K9029, 3rd listed row",0.00
same,EC50 (ppm),"[4]; isolate K9029, 3rd listed row",5 ppm
same,effectiveness compared with the racemate (in words),"[4]; isolate K9029, summary of Tables A and B",more effective
same,M = (EC50 (enantiomer)/EC50 (racemate)) − 0.5,"[5]; isolate K9032, 1st listed row",0.00
same,EC50 (ppm),"[5]; isolate K9032, 1st listed row",0.1 ppm
same,M = (EC50 (enantiomer)/EC50 (racemate)) − 0.5,"[5]; isolate K9032, 2nd listed row",0.20
same,EC50 (ppm),"[5]; isolate K9032, 2nd listed row",0.07 ppm
same,M = (EC50 (enantiomer)/EC50 (racemate)) − 0.5,"[5]; isolate K9032, 3rd listed row",0.30
same,EC50 (ppm),"[5]; isolate K9032, 3rd listed row",0.08 ppm
same,M = (EC50 (enantiomer)/EC50 (racemate)) − 0.5,[6]; [9],0.07
same,EC50 (ppm),[6]; [10],0.4 ppm
same,M = (EC50 (enantiomer)/EC50 (racemate)) − 0.5,[7]; [9],0.17
same,EC50 (ppm),[7]; [10],0.02 ppm
same,M = (EC50 (enantiomer)/EC50 (racemate)) − 0.5,[8]; [9],0.06
same,EC50 (ppm),[8]; [10],0.05 ppm
